Results from PubChem BioAssay (NCI).
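Following 48 hours of exposure in 96-well plates, responses at five concentrations were used to interpolate endpoints linearly. TGI: total growth inhibition.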

How the values were obtained:
Assay in all cases: growth of human tumour cells (NCI), 48 h
COLO 205 colon = system: COLO 205 colon
HOP-92 NSCLC = system: HOP-92 NSCLC
M14 melanoma = system: M14 melanoma
MALME-3M melanoma = system: MALME-3M melanoma
MCF7 breast = system: MCF7 breast
NCI/ADR-RES ovarian = system: NCI/ADR-RES ovarian
SW-620 colon = system: SW-620 colon
UACC-62 melanoma = system: UACC-62 melanoma
MOLT-4 leukemia = system: MOLT-4 leukemia
SF-539 CNS = system: SF-539 CNS

SMILES | TGI (COLO 205 colon) [µM] | TGI (HOP-92 NSCLC) [µM] | TGI (M14 melanoma) [µM] | TGI (MALME-3M melanoma) [µM] | TGI (MCF7 breast) [µM] | TGI (NCI/ADR-RES ovarian) [µM] | TGI (SW-620 colon) [µM] | TGI (UACC-62 melanoma) [µM] | TGI (MOLT-4 leukemia) [µM] | TGI (SF-539 CNS) [µM]
CC(CSC(=N)N)C(N)=O (configuration not stated) | > 100 | > 100 | > 100 | > 100 | > 100 | > 100 | > 100 | > 100 | – | –
CC(=O)Nc1[nH]n(C)c(=O)c1-c1nnc(C)s1 | > 100 | > 100 | > 100 | > 100 | – | – | > 100 | – | > 100 | > 100
Cc1ccc(NC(=O)CCCC(=O)CC(=O)c2ccc(Br)cc2)cc1 | > 100 | > 100 | > 100 | > 100 | – | – | > 100 | > 100 | > 100 | > 100
CC1=C(c2nc3ccccc3s2)C(=O)OC1(C)C | > 100 | – | > 100 | > 100 | – | – | > 100 | > 100 | > 100 | > 100
CC(C)(C)OC(=O)NC1CCCC1C(=O)C1=CCCC1 (configuration not stated) | > 100 | > 100 | > 100 | – | – | > 100 | > 100 | > 100 | > 100 | –
FC(F)(F)c1ccccc1C1SCC2=Nc3ccccc3CN21 (configuration not stated) | 25 | 60.9 | 24.6 | – | 26.5 | 35.7 | > 100 | 26.1 | > 100 | 22.6
[N-]=[N+]=Nc1ccccc1-c1ccccc1[N+](=O)[O-] | – | > 100 | > 100 | > 100 | > 100 | 92.1 | > 100 | > 100 | 65.1 | –
COc1ccc(C2c3cc4c(cc3OC(NNc3ccccc3)C2C)OCO4)cc1 (configuration not stated) | 20.5 | 67.9 | > 100 | 52.9 | 44.7 | – | > 100 | 59.5 | > 100 | 6.55
COC(=O)C(CC(C)C)NC(=O)C(NC(=O)c1ccc(-c2ccc(Cl)cc2Cl)o1)C(C)C (configuration not stated) | 52.2 | 45.9 | 65.8 | – | 44.7 | > 100 | > 100 | 44.8 | 44.7 | > 100
CC(C)c1cccc(C(C)C)c1NC(=O)C(=O)Cc1nc2ccc([N+](=O)[O-])cc2[nH]c1=O | > 100 | > 100 | > 100 | > 100 | – | – | > 100 | > 100 | > 100 | > 100
Cc1c(O)c(=O)ccn1CCN | > 100 | > 100 | > 100 | > 100 | – | – | > 100 | > 100 | > 100 | –
N#CCCn1[nH]c(=O)c(Cl)c(Cl)c1=O | 57.3 | 16.6 | – | 33 | – | – | 31.8 | – | 37.4 | 51.1
C1CNOCCCONCCCNOCCCONC1 | > 100 | 82.1 | > 100 | 99.2 | > 100 | > 100 | > 100 | > 100 | > 100 | –
